US20260068884A1, “COMPOSITION USED FOR KILLING FUNGI AND METHOD FOR APPLYING COMPOSITION” (JIANGSU FLAG CHEMICAL INDUSTRY CO., LTD., priority 2022, published 2026)
Converted amounts (≈) assume the structure as drawn. Where two headings read alike, the source gives them in different places.

Tests used:
cucumber powdery mildew = experiment: field efficacy test for cucumber powdery mildew; assay type: in vivo; conditions: spray
Protocol: Field efficacy test for preventing and treating cucumber powdery mildew.
The test object is cucumber powdery mildew. The test is carried out on Xiaoying village of Liuhe district of Nanjing city, Jiangsu Province, China, the field trend of the test is flat, the soil is loam, the fertility is medium, the pH value is 6.8, and the management of rich water during the test is medium. And setting blank contrast, repeating the treatment for 3 times, wherein each cell has 30 square meters and is arranged in random block groups. The water consumption per acre is 40 L by adopting a conventional spraying method, and the water is uniformly sprayed on the front and back surfaces of the leaves.
The investigation and statistical method comprises the steps of investigating the base of illness state before application of the medicament, and investigating once again 10-14 days after the last application of the medicament, wherein 2 times of investigation are total. Four points are randomly taken from each cell, 2 plants are investigated from each point, all leaves are investigated from each plant, and each leaf is graded and recorded according to the percentage of lesion spots to the leaf area. The grading method comprises the following steps: • stage 0: no lesion spots; • stage 1: the lesion area accounts for less than 5% of the whole leaf area; • stage 3: the ratio of the lesion spot area to the whole leaf area is more than 6% to less than 10%; • stage 5: the ratio of the lesion spot area to the whole leaf area is more than 11% to less than 25%; • stage 7: the ratio of the lesion spot area to the whole leaf area is more than 26% to less than 50%; • stage 9: the ratio of the lesion spot area to the whole leaf area is more than 50%;
When the fungicidal activity of the active compound combination exceeds the sum of the activities of the active compounds when applied individually, then there is always a synergistic effect of the fungicides. The expected activity of a given combination of two active compounds can be calculated (according to the Colby formula) as follows (refer to S. R. Colby, “Calculation of the synergistic andantagonistic responses of herbicide combinations”, Weeds 1967, 15, pages 20-22):
[formula] • X is the efficacy of component A when applied at an application rate of m g a.i./ha, • Y is the efficacy of component B when applied at an application rate of n g a.i./ha, • Cexp is the expected efficacy when the active compound A is administered at an application rate of m g a.i./ha and the active compound B is administered at an application rate of n g a.i./ha, respectively, • the degree of efficacy is expressed as %: 0% means the efficacy corresponding to the control group, while 100% efficacy means no disease observed. • C-Cobs/Cexp, C>1 indicates synergy and antagonism if C<1.

[1] = system: rape sclerotinia sclerotiorum; experiment: plate method, inhibition of hypha growth (in-vessel bioassay); assay type: cell-based; conditions: for EC50: Sclerotinia sclerotiorum
Blumeria graminis = experiment: pot culture method, protective control of wheat powdery mildew; assay type: in vivo; conditions: for Measured Toxicity Index of Mixture (ATI): standard fungicide = component A; for EC50: Blumeria graminis, control efficacy, potted wheat, sprayed 24 h before inoculation, 7 days after inoculation
[2] = system: wheat scab germ (Fusarium graminearum); experiment: microbe, parasite or virus in culture; assay type: cell-based; conditions: for Measured Toxicity Index of Mixture (ATI): standard fungicide = component A
[3] = system: wheat rust (Puccinia striiformis f. sp. tritici); experiment: pot culture method, protective control of wheat rust; assay type: in vivo; conditions: for Measured Toxicity Index of Mixture (ATI): standard fungicide = component A; for EC50: Puccinia striiformis
[4] = single component B, g a.i./ha: azoxystrobin 72, fludioxonil 50, pyraclostrobin 160, difenoconazole 100
[5] = hypha growth inhibition, plate method, wheat fusarium graminearum

Molecule | EC50 [1] [µg/mL] | Measured Toxicity Index of Mixture (ATI) (Blumeria graminis) | Measured Toxicity Index of Mixture (ATI) [2] | Measured Toxicity Index of Mixture (ATI) [3] | EC50 (Blumeria graminis) [µg/mL] | EC50 ([2]; Fusarium graminearum) [µg/mL] | EC50 [3] [µg/mL] | other results
CO/C=C(/C(=O)OC)c1ccccc1Oc1cc(Oc2ccccc2C#N)ncn1 [azoxystrobin] |  |  |  |  |  |  |  | Cobs Actual control Effect (cucumber powdery mildew; [4]): 50.28%
N#Cc1c(Cl)c(Cl)c(Cl)c(C#N)c1Cl [chlorothalonil] | 0.82 (≈ 3.08 µM) |  |  |  |  |  |  | Measured Toxicity Index of Mixture (ATI) [1]: 1.22
CC(C1CC1)C(O)(Cn1cncn1)c1ccc(Cl)cc1 (stereo not drawn) [ciproconazole] |  | 94.12 | 0.50 | 233.08 |  |  |  | EC50 [2, 5]: 2 µg/mL (≈ 6.85 µM)
C=C(CN(C(=O)c1c(C(F)F)nn(C)c1F)C1CC1)c1ccc(Cl)cc1Cl [component A] | 0.01 (≈ 0.0239 µM) | 100.00 | 100.00 | 100.00 | 16 (≈ 38.3 µM) | 0.01 (≈ 0.0239 µM) | 29 (≈ 69.3 µM) | Measured Toxicity Index of Mixture (ATI) ([1]; standard fungicide = component A): 100; Cobs Actual control Effect (cucumber powdery mildew; 40 g a.i./ha): 37.60%; Cobs Actual control Effect (cucumber powdery mildew; 60 g a.i./ha): 46.88%; Cobs Actual control Effect (cucumber powdery mildew; 104 g a.i./ha): 54.68%; Cobs Actual control Effect (cucumber powdery mildew; 150 g a.i./ha): 67.74%
CC1COC(Cn2cncn2)(c2ccc(Oc3ccc(Cl)cc3)cc2Cl)O1 (stereo not drawn) [difenoconazole] |  |  |  |  |  |  |  | Cobs Actual control Effect (cucumber powdery mildew; [4]): 67.85%
N#Cc1c[nH]cc1-c1cccc2c1OC(F)(F)O2 [fludioxonil] | 0.015 (≈ 0.0604 µM) |  |  |  |  |  |  | Measured Toxicity Index of Mixture (ATI) [1]: 66.67; Cobs Actual control Effect (cucumber powdery mildew; [4]): 47.70%
CC1(C)CCC(Cc2ccc(Cl)cc2)C1(O)Cn1cncn1 (stereo not drawn) [metconazole] |  |  | 33.33 |  |  | 0.03 (≈ 0.0938 µM) |  | 
CCOC(=O)C(C#N)=C(N)c1ccccc1 [phenamacril] |  |  | 2.50 |  |  |  |  | EC50 [2, 5]: 0.4 µg/mL (≈ 1.85 µM)
CCCN(CCOc1c(Cl)cc(Cl)cc1Cl)C(=O)n1ccnc1 [prochloraz] | 0.08 (≈ 0.212 µM) |  | 50.00 |  |  | 0.02 (≈ 0.0531 µM) |  | Measured Toxicity Index of Mixture (ATI) [1]: 12.5
CCCC1COC(Cn2cncn2)(c2ccc(Cl)cc2Cl)O1 (stereo not drawn) [propiconazole] |  | 145.45 |  | 193.33 | 11 (≈ 32.1 µM) |  | 15 (≈ 43.8 µM) | 
OC(Cc1ccccc1Cl)(Cn1nc[nH]c1=S)C1(Cl)CC1 (stereo not drawn) [prothioconazole] |  | 114.29 | 0.25 | 322.22 | 14 (≈ 40.7 µM) | 4 (≈ 11.6 µM) | 9 (≈ 26.1 µM) | 
COC(=O)N(OC)c1ccccc1COc1ccn(-c2ccc(Cl)cc2)n1 [pyraclostrobin] |  | 133.33 | 0.50 | 241.67 | 12 (≈ 30.9 µM) | 2 (≈ 5.16 µM) | 12 (≈ 30.9 µM) | Cobs Actual control Effect (cucumber powdery mildew; [4]): 72.87%
CC(C)(C)C(O)(CCc1ccc(Cl)cc1)Cn1cncn1 (stereo not drawn) [tebuconazole] | 0.1 (≈ 0.325 µM) | 123.08 | 16.67 | 181.25 | 13 (≈ 42.2 µM) | 0.06 (≈ 0.195 µM) | 16 (≈ 52 µM) | Measured Toxicity Index of Mixture (ATI) [1]: 10.00
OCC1=C[C@H](N[C@H]2C[C@H](CO)[C@@H](O[C@@H]3O[C@H](CO)[C@@H](O)[C@H](O)[C@H]3O)[C@H](O)[C@H]2O)[C@H](O)[C@@H](O)[C@@H]1O [validamycin] |  |  | 0.08 |  |  | 13 (≈ 26.1 µM) |  | 
fluazolidinamide |  | 80.00 |  | 116.00 |  |  |  | 
